Among the data in ChEMBL document CHEMBL5532721, “Novel KRAS Inhibitors for Treating Non-Small-Cell Lung Cancer” (ACS Med Chem Lett, 2024) are IC50 values, retold here.

A short description of assay [1]: Inhibition of recombinant GDP-loaded KRAS G12D mutant/recombinant SOS (unknown origin) interaction preincubated for 20 mins followed by SOS addition and measured after 30 mins by HTRF assay. More on the design: species or system Homo sapiens.
A short description of assay [2]: Inhibition of recombinant GMPPNP-loaded KRAS G12D mutant/recombinant GST-tagged RAF1 RBD (unknown origin) interaction preincubated for 20 mins followed by RAF1 RBD addition and measured after 3 hrs by HTRF assay. Also noted: species or system Homo sapiens. A general note: TR-FRET usually uses a lanthanide donor and a delayed reading to cut background.

The IC50 is the concentration needed to halve the response being measured.

As to `C#Cc1c(F)ccc2cc(O)cc(-c3ncc4c(N5CCOCC(CO)C5)nc(OC[C@]56CCC[C@H]5N(C)CCC6)nc4c3F)c12` (some centres not stated), the IC50 in assay [1] is 5 nM; in assay [2] it was 3 nM.

As for `C#Cc1c(F)ccc2cc(O)cc(-c3ncc4c(N5CCCC(C#N)C5)nc(OC[C@@]56CCCN5C[C@H](F)C6)nc4c3F)c12` (some centres not stated), the concentration for half-maximal inhibition (IC50) in assay [1] and in assay [2] was 2 nM in each case.

In the case of `C#Cc1c(F)ccc2cc(O)cc(-c3ncc4c(N5CCOCC(CC#N)C5)nc(OC[C@]56CCC[C@H]5N(C)CCC6)nc4c3F)c12` (some centres not stated), the 50% inhibitory concentration (IC50) in assay [1] and in assay [2] was 2 nM each time.

With `C#Cc1c(F)ccc2cc(O)cc(-c3ncc4c(N5CCCOCC5)nc(OC[C@]56CCC[C@H]5N(CC)CCC6)nc4c3F)c12`, the half-maximal inhibitory concentration (IC50) is 2 nM in assay [1] and 6 nM in assay [2].

`C#Cc1c(F)ccc2cc(O)cc(-c3ccc4c(N5C[C@@H]6C[C@H]5C(=O)N6)nc(OC[C@]56CCC[C@H]5N(C)CCC6)nc4c3F)c12`: the figures for the concentration for half-maximal inhibition (IC50) in assay [1] and in assay [2] were 6 nM and 3 nM, respectively.

`C#Cc1c(F)ccc2cc(O)cc(-c3ncc4c(N5CCCC(O)(C(F)(F)F)C5)nc(OC[C@]56CCC[C@H]5N(C)CCC6)nc4c3F)c12` (some centres not stated): the results for the IC50 in assay [1] and in assay [2] were 2 nM and 3 nM, respectively.
